The source made the active and inactive calls.
Tests used:
[1] = Luminescence Cell-Based Dose Response HTS to Identify Activators of Luciferase Translation or Activity in H4 […] Cells. [Related pubchem assays: 1829 (Project Summary), 1814 (Primary HTS)]; format: functional
H4 = experiment: Luminescence Cell-Based Dose Response HTS to Identify Activators of 5'UTR Stem-Loop Driven Prion Protein mRNA Translation in H4 Neuroglioblastoma Cells. [Related pubchem assays: 1829 (Project Summary), 1814 (Primary HTS)]; format: functional; settings: Homo sapiens
[2] = Luminescence Cell-Based Dose Confirmation HTS to Identify Activators of 5'UTR Stem-Loop Driven Alpha-Synuclein mRNA Translation in H4 Neuroglioblastoma Cells. [Related pubchem assays: 1829 (Project Summary), 1814 (Primary HTS)]; format: functional
[3] = Luminescence Cell-Based Dose Response HTS to Identify Inhibitors of 5'UTR Stem-Loop Driven Prion Protein mRNA Translation in H4 Neuroglioblastoma Cells. [Related pubchem assays: 1827 (Project Summary), 1813 (Primary HTS)]; format: functional
[4] = inhibitors of firefly luciferase expression or activity, dose response, H4 neuroglioma cells, luminescence (AID 1990); format: functional, cell-based
[5] = biological target: T1, Microphthalmia-associated transcription factor (Homo sapiens, UniProt O75030); experiment: TRPM1 promoter luciferase signal decrease, dose response, MITF inhibitor project, cell-based, SK-MEL-5, cherry-picked, set 3 (AID 493073); format: functional
T1 sequence (O75030 whole entry): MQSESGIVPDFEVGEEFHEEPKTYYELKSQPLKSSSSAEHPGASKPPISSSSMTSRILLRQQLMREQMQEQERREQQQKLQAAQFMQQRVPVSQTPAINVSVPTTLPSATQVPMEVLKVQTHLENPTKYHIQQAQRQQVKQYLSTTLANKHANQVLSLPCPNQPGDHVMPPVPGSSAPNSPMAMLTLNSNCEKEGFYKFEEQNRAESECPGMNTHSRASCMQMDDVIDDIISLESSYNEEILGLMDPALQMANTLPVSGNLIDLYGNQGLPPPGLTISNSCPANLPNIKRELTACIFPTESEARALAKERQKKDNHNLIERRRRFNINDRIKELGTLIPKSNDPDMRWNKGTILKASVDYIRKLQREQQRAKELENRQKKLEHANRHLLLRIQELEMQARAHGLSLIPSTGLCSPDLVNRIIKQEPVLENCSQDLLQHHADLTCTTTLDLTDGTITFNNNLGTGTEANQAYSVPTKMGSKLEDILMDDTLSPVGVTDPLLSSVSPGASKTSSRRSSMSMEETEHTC

[6] = inhibitors of SNCA 5'UTR-driven reporter translation, confirmation, H4 neuroglioma cells, luminescence (AID 1988); format: functional, cell-based
[7] = growth suppression of beta-catenin-knockout colon cells, dose response, cell-based, HCT116, human colon tumor (AID 1045); format: functional;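 further: HCT116 colon tumor cells with beta catenin knocked out; cells exposed to compound for 60 hours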
[8] = growth suppression of PTEN-null colon cells, dose response, cell-based, HCT116 PTEN knockout (AID 1047); format: functional;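 further: HCT116 colon tumor cells with PTEN knocked out; cells exposed to compound for 60 hours before readout; potency for loss of cell viability measured by luminescence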
[9] = biological target: T2, High affinity choline transporter 1 (Homo sapiens, UniProt Q9GZV3); experiment: CHT inhibitors, dose response, cell-based, 5-point CRC, membrane potential dye (AID 504840); format: functional
T2 sequence (Q9GZV3 whole entry): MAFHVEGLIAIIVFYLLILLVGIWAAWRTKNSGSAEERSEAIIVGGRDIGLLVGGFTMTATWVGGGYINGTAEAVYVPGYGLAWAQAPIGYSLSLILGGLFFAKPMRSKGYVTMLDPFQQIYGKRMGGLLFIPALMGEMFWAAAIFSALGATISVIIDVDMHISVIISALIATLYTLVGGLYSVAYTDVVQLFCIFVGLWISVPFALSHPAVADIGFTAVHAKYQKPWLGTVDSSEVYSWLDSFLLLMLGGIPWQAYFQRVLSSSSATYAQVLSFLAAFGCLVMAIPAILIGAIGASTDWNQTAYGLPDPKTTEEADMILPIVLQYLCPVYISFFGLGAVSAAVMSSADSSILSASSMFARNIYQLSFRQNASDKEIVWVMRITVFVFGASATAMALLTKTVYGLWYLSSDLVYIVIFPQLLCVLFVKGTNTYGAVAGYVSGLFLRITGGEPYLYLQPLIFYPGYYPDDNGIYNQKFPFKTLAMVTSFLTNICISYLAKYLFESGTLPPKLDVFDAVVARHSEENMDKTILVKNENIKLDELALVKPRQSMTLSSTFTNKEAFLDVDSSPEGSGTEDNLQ

Protein skinhead-1 = biological target: T3, Protein skinhead-1 (Caenorhabditis elegans, UniProt P34707); format: functional
T3 sequence (P34707 whole entry): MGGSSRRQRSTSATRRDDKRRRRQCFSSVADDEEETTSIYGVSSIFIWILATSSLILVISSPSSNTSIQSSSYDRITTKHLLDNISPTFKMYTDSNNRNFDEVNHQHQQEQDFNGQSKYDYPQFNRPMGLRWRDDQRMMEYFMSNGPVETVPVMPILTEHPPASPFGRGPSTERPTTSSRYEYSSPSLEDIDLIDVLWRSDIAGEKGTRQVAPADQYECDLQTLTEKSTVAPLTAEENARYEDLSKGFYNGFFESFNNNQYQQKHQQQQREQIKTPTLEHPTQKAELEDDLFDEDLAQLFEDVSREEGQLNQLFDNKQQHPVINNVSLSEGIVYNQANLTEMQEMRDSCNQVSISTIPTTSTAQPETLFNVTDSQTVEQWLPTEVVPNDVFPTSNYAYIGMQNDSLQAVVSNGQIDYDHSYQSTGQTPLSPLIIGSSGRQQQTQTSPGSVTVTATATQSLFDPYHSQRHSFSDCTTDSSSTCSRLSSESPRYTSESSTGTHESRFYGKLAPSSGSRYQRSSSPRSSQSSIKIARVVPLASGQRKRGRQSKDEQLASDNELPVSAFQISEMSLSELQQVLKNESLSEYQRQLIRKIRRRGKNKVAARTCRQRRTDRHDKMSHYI

[10] = biological target: T4, RNA-binding protein pos-1 (Caenorhabditis elegans, UniProt G5EF15); experiment: inhibitors of POS-1/mex-3 RNA binding, dose response, biochemical, fluorescence polarization (AID 1964);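 further: purified POS-1 fused to maltose binding protein made in E. coli; potency of compounds blocking POS-1 binding to fluorescent RNA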
T4 sequence (G5EF15 whole entry): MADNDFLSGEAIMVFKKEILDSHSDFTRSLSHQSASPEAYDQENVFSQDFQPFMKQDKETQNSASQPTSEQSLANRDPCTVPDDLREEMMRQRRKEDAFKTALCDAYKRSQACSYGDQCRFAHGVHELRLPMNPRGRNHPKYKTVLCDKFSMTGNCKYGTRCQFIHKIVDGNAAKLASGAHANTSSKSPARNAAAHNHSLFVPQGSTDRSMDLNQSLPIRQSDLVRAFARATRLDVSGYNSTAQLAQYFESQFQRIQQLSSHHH

[11] = biological target: T5, Zinc finger protein mex-5 (Caenorhabditis elegans, UniProt Q9XUB2); experiment: MEX-5/TCR-2 RNA interaction inhibitors, dose response, biochemical, C. elegans, fluorescence polarization (AID 1960)
T5 sequence (Q9XUB2 whole entry): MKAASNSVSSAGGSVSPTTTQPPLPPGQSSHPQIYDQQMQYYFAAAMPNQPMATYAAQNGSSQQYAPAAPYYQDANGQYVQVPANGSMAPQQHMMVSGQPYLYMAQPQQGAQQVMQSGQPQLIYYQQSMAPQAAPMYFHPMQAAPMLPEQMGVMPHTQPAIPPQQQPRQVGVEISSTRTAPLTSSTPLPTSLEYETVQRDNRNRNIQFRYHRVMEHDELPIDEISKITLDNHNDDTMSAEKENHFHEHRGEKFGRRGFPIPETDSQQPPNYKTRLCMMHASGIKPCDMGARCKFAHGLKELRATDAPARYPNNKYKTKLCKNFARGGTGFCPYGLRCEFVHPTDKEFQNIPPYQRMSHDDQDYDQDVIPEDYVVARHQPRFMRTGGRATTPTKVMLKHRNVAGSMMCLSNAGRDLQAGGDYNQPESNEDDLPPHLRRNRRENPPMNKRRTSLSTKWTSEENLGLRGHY

[12] = LGR2 antagonists, dose response, cell-based, HEK293, CRE-luciferase reporter, cherry pick, set 2 (AID 743343); format: functional;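 further: transfected cells were stimulated with diluted bursicon conditioned medium after compound addition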
[13] = MC4R antagonists, dose response, counter-screen for LGR2 antagonist project, cell-based, plate reader, cherry pick (AID 743444); format: functional;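 further: transfected HEK 293 cells stimulated with alpha-MSH peptide; potency of inhibitors of the alpha-MSH evoked signal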
[14] = biological target: T6, Rac GTPase-activating protein 1 (Homo sapiens, UniProt Q9H0H5); experiment: MgcRacGAP GTPase-activating activity inhibitors, confirmation, biochemical, ADP Hunter fluorescence, primary and confirmatory (AID 624330); format: functional
T6 sequence (Q9H0H5 whole entry): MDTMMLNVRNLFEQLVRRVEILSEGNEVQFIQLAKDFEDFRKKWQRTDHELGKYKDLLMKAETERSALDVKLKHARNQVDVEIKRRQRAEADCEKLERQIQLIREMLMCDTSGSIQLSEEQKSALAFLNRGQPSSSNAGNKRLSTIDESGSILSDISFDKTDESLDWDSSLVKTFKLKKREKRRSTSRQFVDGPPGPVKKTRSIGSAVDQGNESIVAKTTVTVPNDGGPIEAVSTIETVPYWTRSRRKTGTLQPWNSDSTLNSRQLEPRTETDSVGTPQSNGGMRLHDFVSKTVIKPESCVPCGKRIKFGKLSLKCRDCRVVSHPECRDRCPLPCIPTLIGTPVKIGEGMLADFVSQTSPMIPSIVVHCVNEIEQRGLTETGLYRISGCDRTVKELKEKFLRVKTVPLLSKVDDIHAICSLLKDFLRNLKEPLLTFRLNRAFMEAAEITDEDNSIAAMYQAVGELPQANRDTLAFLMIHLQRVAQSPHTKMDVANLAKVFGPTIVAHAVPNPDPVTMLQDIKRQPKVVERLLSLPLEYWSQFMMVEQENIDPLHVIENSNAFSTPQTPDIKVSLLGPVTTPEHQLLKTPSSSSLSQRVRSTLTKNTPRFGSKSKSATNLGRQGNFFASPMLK

[15] = Shn3 3'UTR reporter inhibitors, dose response, cell-based, Clone20 osteoblasts, firefly luciferase, cherry-picked (AID 624132); format: functional;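 further: firefly luciferase luminescence from reporter carrying the Shn3 3'UTR in osteoblasts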
[16] = control 3'UTR Renilla luciferase suppression, dose response, counter-screen for Shn3 inhibitor project, cell-based, Clone20-Shn3RL, cherry-picked (AID 624133); format: functional
[17] = HEp-2 cell cytotoxicity, dose response, cytotoxicity control for RSV inhibitor project, HTS (AID 2410); format: functional; settings: human respiratory syncytial virus

SMILES | EC50 [1] | EC50 (H4) | EC50 [2] | other results
COc1ccc2cc(C(=O)N3CCN(C)CC3)[nH]c2c1 | 9.45 µM (active) | > 120 µM (not active) | 13.3 µM (active) | –
ClC(=C\c1ccccc1)/C=N/N1CCN(c2ccccn2)CC1 | 36.5 µM (active) | 8.35 µM (active) | 0.347 µM (active) | –
C[n+]1cn(/N=C/c2ccccc2)c2ccccc21 | > 120 µM (not active) | 57.7 µM (active) | 17.4 µM (active) | –
c1ccc(CSc2nnc(-c3ccco3)n2Cc2ccccc2)cc1 | 6.57 µM (active) | 7.76 µM (active) | 0.166 µM (active) | –
O=C(Nc1nc2cc3c(cc2s1)OCO3)C1=COCCO1 | – | – | – | EC50 [3]: 6.64 µM (active); EC50 [4]: 2.39 µM (inconclusive); AC50 [5]: 3.77 µM (active); EC50 [6]: 1.22 µM (active)
CCc1cc(SC#N)cc(CC)c1NC(=O)CCl | – | – | – | EC50 [7]: 8.43 µM (active); EC50 [8]: 8.97 µM (active)
O=C1Nc2cc(Cl)c(Cl)cc2N(O)N1c1ccc(Cl)cc1 | > 120 µM (not active) | > 120 µM (not active) | > 120 µM (not active) | –
O=C(c1ccc(O)cc1)c1ccc(Cl)cc1 | – | – | – | IC50 [9]: 11 µM (active)
CC(C)CC(=O)Nc1ccc(Nc2ccccc2)cc1 | – | – | – | IC50 (Protein skinhead-1): > 100 µM (inactive)
Cc1ccc2nc3sc(C(=O)N4CCCc5ccccc54)c(N)c3cc2c1 | 7.55 µM (active) | > 120 µM (not active) | > 120 µM (not active) | EC50 [10]: > 300 µM (not active); EC50 [11]: > 300 µM (inconclusive)
CCOC(=O)CC1(CC(=O)OCC)NC(=O)c2c(C)sc(C(=O)OCC)c2N1 | – | – | – | IC50 [9]: 13.8 µM (active)
COc1cc2nc(C3CC3)n(NC(=O)c3ccc(Cl)cc3)c(=O)c2cc1OC | – | – | – | IC50 (Protein skinhead-1): > 100 µM (inactive)
Fc1ccccc1Nc1nc2ccccc2n2nnnc12 | 95.3 µM (active) | 62.6 µM (active) | 26.2 µM (active) | –
C=C(C)CN1C(=O)C(O)(CC(=O)c2ccc3c(c2)OCCO3)c2ccccc21 (configuration not stated) | – | – | – | EC50 [7]: 22.7 µM (active); EC50 [8]: 22.1 µM (active)
COc1ccc(C2=NN(CN3C(=O)C(=O)c4ccccc43)C(c3ccc(OC)cc3)C2)cc1 (configuration not stated) | – | 0.112 µM (active) | 14.6 µM (active) | –
CN(C)c1ccc(C2NC(=O)c3ccccc3N2)cc1 (configuration not stated) | – | – | – | AC50 [12]: 7.27 µM (active); AC50 [13]: 9.95 µM (active)
NS(=O)(=O)c1cc2c(cc1Cl)NC(C1C[C@H]3C=C[C@@H]1C3)NS2(=O)=O (some centres not stated) | > 120 µM (not active) | > 120 µM (not active) | > 120 µM (not active) | –
O=C(CNS(=O)(=O)c1cccs1)Nc1ccc2c(c1)OCCO2 | 7.8 µM (active) | 2.85 µM (active) | 11.6 µM (active) | –
CC(=O)N(C1=NCCCS1)c1ccc(F)cc1 | – | – | – | IC50 (Protein skinhead-1): > 100 µM (inactive)
CCCNC(=O)c1c(NC(=O)C2COc3ccccc3O2)sc2c1CCCC2 (configuration not stated) | – | – | – | EC50 [7]: 9.98 µM (active); EC50 [8]: 8.59 µM (active)
COc1ccc(N2CC2c2ccncc2)cc1 (configuration not stated) | – | – | – | IC50 [14]: 144 µM (active)
CC(C)CCNC(=O)c1cc2c(O)nc3ccccc3c2s1 | – | – | – | AC50 [15]: 41.5 µM (active); AC50 [16]: 18.4 µM (active)
COc1ccc(NC2CCCN(C(=O)CN3CCOC3=O)C2)cc1 (configuration not stated) | – | – | – | IC50 [14]: 109 µM (active)
COc1cc(/C=N/NC(=O)C(=O)N2CCCC2)ccc1O | – | – | – | IC50 [14]: 26.7 µM (active)
Brc1ccc(-c2cn3ccccc3n2)s1 | – | – | – | IC50 (Protein skinhead-1): 12.7 µM (active)
O=C(Nc1nc2c(ccc3ccccc32)s1)c1ccco1 | – | – | – | IC50 (Protein skinhead-1): 14.9 µM (active); CC50 [17]: 14.8 µM (active)
FC(F)(F)c1ccccc1Cc1c(-c2ccccc2)nc2ccc(Br)cn12 | – | – | – | IC50 (Protein skinhead-1): > 100 µM (inactive)
